Measured values from patent US10767149B2, “Microfluidic device for three dimensional and compartmentalized coculture of neuronal and muscle cells, with functional force readout” (priority 2016, dated 2020).
“Also recorded” adds a separate entry of the source.

Tests used:
Assay type in all cases: cell-based, mouse
[1] = tested on: motor neurons in neurospheres innervating C2C12-derived muscle bundle; assay: Glutamate stimulation of neurospheres in three-dimensional microfluidic neuron-muscle coculture
Method: . After reassembling an open-reservoir variant of the microfluidic device onto the muscle strip, the medium contained in all channels was flushed with a collagen-Matrigel mix. Neurospheres ˜300 to 400 μm in diameter were manually selected, resuspended with the same collagen-Matrigel mixture as above, and individually pipetted into the leftmost channel (FIG. 9d and FIG. 8) before the devices were placed in the incubator for matrix gelation, after which medium was supplied to both open reservoirs. The diameter of the neurospheres being greater than the inter-post distance ensured their restriction to the assign channel, resulting in a physical separation of ˜1 mm between the neurons and the muscles.
The first muscle contraction, indicative of the presence of functional NMJs, was recorded 80 s after glutamate administration and the twitching frequency rose during the subsequent 120 s to reach a steady value of ˜1.25 Hz (FIG. 10a). The delay in contraction and increase of the twitching frequency is likely due to the diffusion of the glutamate to the motor neurons embedded in the ECM since this lag is absent in adherent 2D cultures (T. Wada, M. Honda, I. Minami, N. Tooi, Y. Amagai, N. Nakatsuji, K. Aiba, PLoS One 2009, 4, DOI 10.1371/journal.pone.0006722) or three-dimensional constructs in suspension (Y. Morimoto, M. Kato-Negishi, H. Onoe, S. Takeuchi, Biomaterials 2013, 34, 9413).
All three-dimensional cell cultures in the microfluidic devices were carried out in a collagen:Matrigel hydrogel in a 4:1 ratio. Rat tail type I collagen (Corning) was mixed on ice with 10×PBS with phenol red (serving as pH indicator), 0.5 N NaOH and water for cell culture in order to yield a collagen concentration of 2 mg·ml^−1 at a pH of 7.4. Matrigel without growth factors (BD science) was thoroughly mixed to the collagen at 20% of the final gel mixture volume. The gel was then used within a few minutes following its preparation in order to avoid pre-polymerization.
C2C12 were trypsinized, counted and centrifuged for 5 min at 200 rcf. […]

[2] = tested on: NMJs between ChR2^H134R-HBG3-MN and C2C12-derived myotubes
[3] = tested on: NMJs between ChR2^H134R-HBG3-MN neurospheres and C2C12-derived muscle bundle

N[C@@H](CCC(=O)O)C(=O)O [Glutamate]
steady muscle twitching frequency ([1]; 400 μM in medium): ~1.25 Hz | time to first muscle contraction after administration ([1]; 400 μM in medium, leftmost channel): 80 s | time over which twitching frequency rose to steady value ([1]; 400 μM, after first contraction): 120 s

α-bungarotoxin
contractility of the myocytes after application (spontaneous twitches) [2]: still contractile; also recorded: did not alter the contractility of the myocytes | effect on light-induced muscle contraction [2]: inhibited | myocytes showing inhibition of light-induced muscle contraction [2]: 17/17 | effect on light-driven muscle contraction (force F) [3]: inhibited the contractions; also recorded: inhibited muscle contraction
